Earlier results, collected in US9314429B2, “Rapidly dispersible dosage form of oxcarbazepine” (APRECIA PHARMACEUTICALS COMPANY, priority 2013, dated 2016).

water solubility: poorly water soluble
SMILES: NC(=O)N1c2ccccc2CC(=O)c2ccccc21 [OXC, 10,11-Dihydro-10-oxo-5H-dibenz[b,f]azepine-5-carboxamide]
